Values quoted from earlier work as cited in EP4699692A1, “ACIDIC GAS ADSORBENT, STRUCTURE COMPRISING ACIDIC GAS ADSORBENT, ACIDIC GAS ADSORPTION DEVICE, AND ACIDIC GAS ADSORBENT PRODUCTION METHOD” (Nitto Denko Corporation, priority 2023, dated 2024).

How the values were obtained:
[1] = amine monomer; regulatory class
[2] = amine monomer
[3] = amine monomer; regulatory class; remark: listed apart in the source
[4] = amine monomer; remark: listed apart in the source

NCCNCCNCCN [TETA, triethylenetetramine]
Poisonous and Deleterious Substances Control Act [1]: Deleterious substance | Skin irritation test (rabbit) [2]: Strong irritant | Fire Service Act [3]: Hazardous material category IV class III petroleums | Mutagenicity test (Ames test) [4]: Positive
